23 compounds from US6756373B1, “Pharmaceutically active compounds” (Pfizer Inc., priority 1999, dated 2004) can be followed below.

For one data set, the target named is cGMP PDE5 (UniProt O76074). Put plainly: Phosphodiesterase (PDE) inhibitory activity: in vitro inhibition of cGMP PDE5 (batch method or scintillation proximity assay). Conditions: in vitro activity as inhibitors of cGMP PDE5. (In general: Scintillation proximity formats need no separation of bound from free tracer.)

SMILES strings stand for the structures.

Description for cGMP PDE5: Phosphodiesterases 7-11 were generated from full length human recombinant clones transfected into SF9 cells.
In summary, the effect of PDE inhibitors was investigated by assaying a fixed amount of enzyme in the presence of varying inhibitor concentrations and low substrate, (cGMP or cAMP in a 3:1 ratio unlabelled to [^3H]-labeled at a conc ˜1/3 Km) such that IC50≅Ki. The final assay volume was made up to 100 μl with assay buffer [20 mM Tris-HCl pH 7.4, 5 mM MgCl2, 1 mg/ml bovine serum albumin].

`CCCCOc1ncc(C(=O)N(C)OC)cc1-c1nc2c(CC)n(CCOC)nc2c(=O)[nH]1` [Example 5, 6-Butoxy-5-[3-ethyl-2-(2-methoxyethyl)-7-oxo-6,7-dihydro-2H-pyrazolo[4,3-d]pyrimidin-5-yl]-N-methoxy-N-methylnicotinamide]: half-maximal inhibition against cGMP PDE5 (IC50) was put at 8.5 nM. In turn, `CCCOc1ncc(N[C@@H](C)C(=O)O)cc1-c1nc2c(CCC)nn(C)c2c(=O)[nH]1` [Example 84, N-[5-(1-Methyl-7-oxo-3-propyl-6,7-dihydro-1H-pyrazolo[4,3-d]pyrimidin-5-yl)-6-propoxy-3-pyridinyl]alanine] yielded an IC50 on cGMP PDE5 of 7.5 nM. At cGMP PDE5, `CCCCOc1ncc(C(C)=O)cc1-c1nc2c(CC)n(CCN3CCOCC3)nc2c(=O)[nH]1` [Example 48] came in with a half-inhibitory concentration (IC50) of 2.45 nM. Regarding `CCCOc1ncc(NS(=O)(=O)CC(=O)O)cc1-c1nc2c(CCC)nn(C)c2c(=O)[nH]1` [Example 80, ({[5-(1-Methyl-7-oxo-3-propyl-6,7-dihydro-1H-pyrazolo[4,3-d]pyrimidin-5-yl)-6-propoxy-3-pyridinyl]amino}sulfonyl)acetic Acid], the melting point fell in the range of 267 to 270 °C. The same compound showed an IC50 against cGMP PDE5 of 0.9 nM. In turn, `CCCCOc1ncc(C(C)=O)cc1-c1nc2c(CC)n(CCOC)nc2c(=O)[nH]1` [Example 16, 5-(5-Acetyl-2-butoxy-3-pyridinyl)-3-ethyl-2-(2-methoxyethyl)-2,6-dihydro-7H-pyrazolo[4,3-d]pyrimidin-7-one] returned an IC50 on cGMP PDE5 of 6.55 nM.

In the case of `CCCOc1ncc(-c2nnn[nH]2)cc1-c1nc2c(CCC)nn(C)c2c(=O)[nH]1` [Example 71, 1-Methyl-5-[2-propoxy-5-(1H-tetrazol-5-yl)-3-pyridinyl]-3-propyl-1,6-dihydro-7H-pyrazolo[4,3-d]pyrimidin-7-one], inhibition against cGMP PDE5 was half-maximal at 1 nM (IC50). Consider `CCCOc1ncc(N2CCN(S(=O)(=O)c3ccc(C)cc3)CC2)cc1-c1nc2c(CCC)nn(C)c2c(=O)[nH]1` [Example 81, 1-Methyl-5-(5-{4-[(4-methylphenyl)sulfonyl]-1-piperazinyl}-2-propoxy-3-pyridinyl)-3-propyl-1,6-dihydro-7H-pyrazolo[4,3-d]pyrimidin-7-one], for which inhibition at cGMP PDE5 was half-maximal at 2 nM (IC50). In the case of `CCCOc1ncc(N(S(C)(=O)=O)S(C)(=O)=O)cc1-c1nc2c(CCC)nn(C)c2c(=O)[nH]1` [Example 76, N-[5-(1-Methyl-7-oxo-3-propyl-6,7-dihydro-1H-pyrazolo[4,3-d]pyrimidin-5-yl)-6-propoxy-3-pyridinyl]-N-(methylsulfonyl)methanesulfonamide], the IC50 on cGMP PDE5 worked out at 3 nM. On to `CCOc1ncc(C(C)=O)cc1-c1nc2c(-c3ccc(N(C)C)nc3)n(C)nc2c(=O)[nH]1` [Example 59, 5-(5-Acetyl-2-ethoxy-3-pyridinyl)-3-[6-(dimethylamino)-3-pyridinyl]-2-methyl-2,6-dihydro-7H-pyrazolo[4,3-d]pyrimidin-7-one], for which the IC50 against cGMP PDE5 amounted to 1.41 nM. Consider `CCCOc1ncc(NS(C)(=O)=O)cc1-c1nc2c(CCC)nn(C)c2c(=O)[nH]1` [Example 77, N-[5-(1-Methyl-7-oxo-3-propyl-6,7-dihydro-1H-pyrazolo[4,3-d]pyrimidin-5-yl)-6-propoxy-3-pyridinyl]methanesulfonamide], for which the IC50 at cGMP PDE5 worked out at 0.9 nM. On cGMP PDE5, `CCCOc1ncc(NCC(=O)O)cc1-c1nc2c(CCC)nn(C)c2c(=O)[nH]1` [Example 75, {[5-(1-Methyl-7-oxo-3-propyl-6,7-dihydro-1H-pyrazolo[4,3-d]pyrimidin-5-yl)-6-propoxy-3-pyridinyl]amino}acetic Acid] came in with an IC50 of 5 nM.

Take `CCCOc1ncc(NC(=O)CC(=O)O)cc1-c1nc2c(CCC)nn(C)c2c(=O)[nH]1` [Example 79, N-[5-(1-Methyl-7-oxo-3-propyl-6,7-dihydro-1H-pyrazolo[4,3-d]pyrimidin-5-yl)-6-propoxy-3-pyridinyl]-3-oxo-β-alanine]: the melting point is 261 to 262 °C. For the same compound, on cGMP PDE5, the IC50 turned out to be 1.6 nM. In turn, `CCCOc1ncc(NC(C)C(=O)OC)cc1-c1nc2c(CCC)nn(C)c2c(=O)[nH]1` (stereo not shown) [Example 83, Methyl 2-{[5-(1-Methyl-7-oxo-3-propyl-6,7-dihydro-1H-pyrazolo[4,3-d]-pyrimidin-5-yl)-6-propoxy-3-pyridinyl]amino}propanoate] returned a melting point of 185 to 187 °C. Further, the midpoint of inhibition against cGMP PDE5, the IC50, lay at 2 nM. On cGMP PDE5, `CCCOc1ncc(I)cc1-c1nc2c(CC)n(CC(=O)OC(C)(C)C)nc2c(=O)[nH]1` [Example 65, tert-butyl [3-ethyl-5-(5-iodo-2-propoxy-3-pyridinyl)-7-oxo-6,7-dihydro-2H-pyrazolo[4,3-d]-pyrimidin-2-yl]acetate] displayed an IC50 of 4 nM.

In turn, `CCCCOc1ncc(C(C)=O)cc1-c1nc2c(CC)n(C3CCNCC3)nc2c(=O)[nH]1` [Example 49, 5-(5-Acetyl-2-butoxy-3-pyridinyl)-3-ethyl-2-(4-piperidinyl)-2,6-dihydro-7H-pyrazolo[4,3-d]pyrimidin-7-one] returned an IC50 against cGMP PDE5 of 18 nM. Same read-out and setting: as for `CCCCOc1ncc(C(=O)CN2CCOCC2)cc1-c1nc2c(CC)n(CCOC)nc2c(=O)[nH]1` [Example 34, 5-[2-Butoxy-5-(4-morpholinylacetyl)-3-pyridinyl]-3-ethyl-2-(2-methoxyethyl)-2,6-dihydro-7H-pyrazolo[4,3-d]pyrimidin-7-one], the figure is 30.7 nM; as for `CCCOc1ncc(NC(=O)CC(=O)OC)cc1-c1nc2c(CCC)nn(C)c2c(=O)[nH]1` [Example 78, Methyl 3-{[5-(1-methyl-7-oxo-3-propyl-6,7-dihydro-1H-pyrazolo[4,3-d]-pyrimidin-5-yl)-6-propoxy-3-pyridinyl]amino}-3-oxopropanoate], 0.3 nM. In the case of `CCCOc1ncc(-c2cc(O)no2)cc1-c1nc2c(CCC)nn(C)c2c(=O)[nH]1` [Example 73, 5-[5-(3-Hydroxy-5-isoxazolyl)-2-propoxy-3-pyridinyl]-1-methyl-3-propyl-1,6-dihydro-7H-pyrazolo[4,3-d]pyrimidin-7-one], the melting point lay within 239 to 241 °C. This compound registered an IC50 at cGMP PDE5 of 5 nM.

Consider `CCCOc1ncc(NCC(=O)OC)cc1-c1nc2c(CCC)nn(C)c2c(=O)[nH]1` [Example 82, Methyl {[5-(1-Methyl-7-oxo-3-propyl-6,7-dihydro-1H-pyrazolo[4,3-d]pyrimidin-5-yl)-6-propoxy-3-pyridinyl]amino}acetate], for which the melting point is 175 °C. Moreover, at cGMP PDE5, the IC50 was 4 nM. On cGMP PDE5, `CCCOc1ncc(I)cc1-c1nc2c(CC)nn(CC(=O)OC(C)(C)C)c2c(=O)[nH]1` [Example 64, tert-butyl [3-ethyl-5-(5-iodo-2-propoxy-3-pyridinyl)-7-oxo-6,7-dihydro-1H-pyrazolo[4,3-d]pyrimidin-1-yl]acetate] returned an IC50 of 7 nM. Regarding `CCCOc1ncc(C#CC(=O)OCC)cc1-c1nc2c(CCC)nn(C)c2c(=O)[nH]1` [Example 72], the IC50 on cGMP PDE5 came out at 0.3 nM. Regarding `CCCOC(=O)Nc1cnc(OCCC)c(-c2nc3c(CCC)nn(C)c3c(=O)[nH]2)c1` [Example 94, Propyl 5-(1-Methyl-7-oxo-3-propyl-6,7-dihydro-1H-pyrazolo[4,3-d]pyrimidin-5-yl)-6-propoxy-3-pyridinylcarbamate], the melting point was in the range of 210 to 211 °C. As for `CCCc1nn(C)c2c(=O)[nH]c(-c3cc([N+](=O)[O-])cnc3OC3CCC3)nc12` [Example 88, 5-[2-(Cyclobutyloxy)-5-nitro-3-pyridinyl]-1-methyl-3-propyl-1,6-dihydro-7H-pyrazolo[4,3-d]pyrimidin-7-one], the melting point lay within 212 to 214 °C.

In general, IC50 refers to the concentration needed to halve the response being measured. As usually defined, the melting point is the temperature, or range, at which the solid turns liquid.
